Experimental data taken from ChEMBL document CHEMBL3860096, “Fragment-to-Lead Medicinal Chemistry Publications in 2015” (J Med Chem, 2017).
pIC50, pKd, pKi: −log10 of the molar value. One block for each molecule: values may come before it.

Columns and labels:
Collagenase 3 = Collagenase 3 (Homo sapiens, UniProt P45452); experiment: Inhibition of human recombinant MMP13 using thiopeptide as chromogenic substrate by colorimetric assay
[1] = Inhibition of Streptococcus pneumoniae NAD+-dependent DNA ligase A
[2] = Inhibition of Haemophilus influenzae NAD+-dependent DNA ligase A
Coagulation factor XI = Coagulation factor XI (Homo sapiens, UniProt P03951); experiment: Inhibition of human factor 11a using pyroGlu-Pro-Arg-pNA.HCl substrate
[3] = target: Proto-oncogene tyrosine-protein kinase receptor Ret (Homo sapiens) (UniProt P07949); experiment: Inhibition of human recombinant RET assessed as residual activity at 100 uM by microfluidics separation based assay
[4] = Inhibition of DNA gyrase B (unknown origin)
[5] = target: DNA repair protein RAD51 homolog 1 (Homo sapiens, UniProt Q06609); experiment: Binding affinity to of humanised RAD51 C-terminal ATPase domain (with deletion of L2 loop residues 288 to 314) from Pyrococcus furiosus expressed in Escherichia coli by ITC method
Chain of DNA repair protein RAD51 homolog 1 (Q06609 2-339 limits assumed): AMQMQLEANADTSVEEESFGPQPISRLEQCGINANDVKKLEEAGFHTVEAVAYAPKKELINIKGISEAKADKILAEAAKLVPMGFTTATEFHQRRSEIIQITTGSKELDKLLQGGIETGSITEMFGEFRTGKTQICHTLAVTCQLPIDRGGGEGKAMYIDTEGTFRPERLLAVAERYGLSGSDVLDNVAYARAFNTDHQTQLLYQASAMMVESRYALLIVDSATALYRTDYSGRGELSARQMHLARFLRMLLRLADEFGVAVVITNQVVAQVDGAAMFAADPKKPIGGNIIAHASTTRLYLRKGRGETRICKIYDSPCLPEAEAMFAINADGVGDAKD

Chain of Proto-oncogene tyrosine-protein kinase receptor Ret (Homo sapiens) (P07949 whole entry): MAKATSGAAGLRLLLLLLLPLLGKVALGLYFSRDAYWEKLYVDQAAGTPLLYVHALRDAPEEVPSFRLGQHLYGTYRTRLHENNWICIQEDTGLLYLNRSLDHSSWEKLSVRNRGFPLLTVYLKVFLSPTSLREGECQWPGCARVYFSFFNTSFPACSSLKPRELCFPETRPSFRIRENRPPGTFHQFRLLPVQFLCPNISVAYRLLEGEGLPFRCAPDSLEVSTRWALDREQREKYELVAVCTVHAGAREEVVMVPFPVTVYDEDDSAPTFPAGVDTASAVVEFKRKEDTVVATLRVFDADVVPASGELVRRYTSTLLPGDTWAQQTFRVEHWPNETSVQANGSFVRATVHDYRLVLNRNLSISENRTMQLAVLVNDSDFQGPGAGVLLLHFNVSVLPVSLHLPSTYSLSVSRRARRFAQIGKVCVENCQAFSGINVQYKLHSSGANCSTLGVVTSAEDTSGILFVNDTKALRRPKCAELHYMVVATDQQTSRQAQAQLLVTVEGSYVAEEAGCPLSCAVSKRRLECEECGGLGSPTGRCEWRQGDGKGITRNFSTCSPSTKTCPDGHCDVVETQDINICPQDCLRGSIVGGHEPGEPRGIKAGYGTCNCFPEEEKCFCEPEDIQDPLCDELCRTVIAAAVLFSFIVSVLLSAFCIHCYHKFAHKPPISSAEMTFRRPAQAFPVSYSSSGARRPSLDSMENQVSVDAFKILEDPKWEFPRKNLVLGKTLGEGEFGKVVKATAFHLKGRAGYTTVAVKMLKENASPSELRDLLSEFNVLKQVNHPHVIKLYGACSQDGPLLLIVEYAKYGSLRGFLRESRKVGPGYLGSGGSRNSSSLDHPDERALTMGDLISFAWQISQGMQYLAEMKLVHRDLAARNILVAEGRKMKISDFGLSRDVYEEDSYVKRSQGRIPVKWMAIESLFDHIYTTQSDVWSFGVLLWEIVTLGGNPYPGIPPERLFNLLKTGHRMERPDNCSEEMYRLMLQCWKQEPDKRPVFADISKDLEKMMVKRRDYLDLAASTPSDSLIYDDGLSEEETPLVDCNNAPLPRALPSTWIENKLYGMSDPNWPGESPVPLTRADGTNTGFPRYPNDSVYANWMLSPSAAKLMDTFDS
Chain of Coagulation factor XI (P03951 19-387 limits assumed): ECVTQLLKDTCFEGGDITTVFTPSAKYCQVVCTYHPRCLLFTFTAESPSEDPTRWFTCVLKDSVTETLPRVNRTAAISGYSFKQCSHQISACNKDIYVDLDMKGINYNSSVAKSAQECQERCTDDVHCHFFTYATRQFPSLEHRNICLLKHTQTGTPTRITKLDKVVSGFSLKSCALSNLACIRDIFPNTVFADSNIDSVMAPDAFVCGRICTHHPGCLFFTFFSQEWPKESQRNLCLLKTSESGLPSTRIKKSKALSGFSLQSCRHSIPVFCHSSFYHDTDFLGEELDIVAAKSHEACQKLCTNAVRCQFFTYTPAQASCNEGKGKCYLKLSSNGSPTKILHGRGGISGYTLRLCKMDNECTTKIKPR
Chain of Coagulation factor XI (P03951 388-625 limits assumed): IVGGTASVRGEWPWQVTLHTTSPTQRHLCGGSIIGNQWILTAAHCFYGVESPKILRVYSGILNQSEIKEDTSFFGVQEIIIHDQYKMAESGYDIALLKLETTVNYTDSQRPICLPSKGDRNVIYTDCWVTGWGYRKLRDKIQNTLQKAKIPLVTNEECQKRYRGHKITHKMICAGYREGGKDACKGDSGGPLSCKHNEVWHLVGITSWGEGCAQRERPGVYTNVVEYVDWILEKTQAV

pIC50 (Collagenase 3): 7.96
SMILES: COc1cccc(CNC(=O)C#Cc2cn(Cc3ccc(C(=O)O)cc3)c(=O)[nH]c2=O)c1

pIC50 [1]: 7.00
pIC50 [2]: 7.00
SMILES: CC(C)(C)c1nc(-c2ccc[nH]2)c2cc(C(N)=O)c(N)nc2n1

pKi (Coagulation factor XI): 9.30
SMILES: O=C(N[C@@H](Cc1ccccc1)C(=O)NCc1cc2cc(Cl)ccc2[nH]c1=O)c1ccc2[nH]c(=O)cc(O)c2c1

Activity [3]: 28%
SMILES: Brc1ccc2c(c1)ncn2-c1ccccc1

pIC50 [1]: < 3.30
pIC50 [2]: < 3.30
SMILES: Cc1ccc2cc(C(N)=O)cc(O)c2n1

pIC50 [4]: 6.80
SMILES: Cc1cc(-c2cc(NC(=O)c3ccc(C(=O)O)cc3C)[nH]n2)cc(C(F)(F)F)c1

pKd [5]: 3.24
SMILES: COC(=O)[C@@H](N)Cc1c[nH]c2ccccc12 [TRYPTOPHAN METHYL ESTER]

pKd [5]: 5.89
SMILES: O=S(=O)(NCCc1c[nH]c2ccccc12)c1cc(Br)c(Cl)s1
